Test results from patent publication US20070093460A1, “Methods of using selective 11beta-HSD inhibitors to treat gluocorticoid associated states” (priority 2005, published 2007).
“Also recorded” adds a separate entry of the source. Like-named read-outs stand apart in the source and are kept apart here.

Tests used:
[1] = tested on: rat aortic rings; assay: Conversion of 3H-corticosterone to 11-dehydrocorticosterone by aortic rings; format: cell-based; details: 3H-corticosterone 10 nM, antisense 3 μM, 24 hrs, compared with nonsense oligomers
Description: (§1) The effects of 11β-HSD1 and 11β-HSD2 antisense on the inter-conversion of ^3H-corticosterone and ^3H-11-dehydro-corticosterone by aortic rings was also determined. Rings (2-3 mm) obtained in a similar manner as those in the contraction studies, were incubated in 1 ml DMEM/F12 media containing 1% FBS at 37° C. under 95% O2-5% CO2 in 24-well culture plates. Rings were incubated for 24 hours with:
(i) ^3H-corticosterone (10 nmol/L)±11β-HSD2 or 11β-HSD1 antisense (3 μmol/L); control groups received nonsense oligomers. The amount of ^3H-11-dehydro-corticqsterone in the incubation medium after 24 hrs was then measured. The effects of 11β-HSD1 antisense/nonsense were measured in quadruplicate (n=6 aortic rings per well) and the effects of 11β-HSD2 antisense/nonsense in duplicate (n=8 aortic rings per well),
Incubation media was collected, ran through a Sep-Pak and eluted with 3 mls of methanol, the eluate was then dried under nitrogen and reconstituted in 500:1 methanol. The aortic rings were dried and weighed. The steroids present in the eluate were separated by high-pressure liquid chromatography with a Dupont Zorbax C8 column eluted at 44° C. at a flow rate of 1 mL/min using 55% methanol for 10 minutes. Steroids were observed by monitoring radioactivity on-line with a Packard Radiomatic Flo-One/Beta Series A-500 counter connected to a Dell Optiflex 425 S/L computer. […]

[2] = tested on: cultured rat vascular endothelial and smooth muscle cells; assay: RT-PCR analysis of 11β-HSD isoform expression in cultured cells; format: cell-based; details: similar protocol
Description: Since 11β-HSD2 appears to exist only in endothelial cells, this observation supports a role for the action of glucocorticoids in affecting endothelial cell function. […] Further experiments to determine whether antisense oligomers down-regulate mRNA and protein expression of their respective 11β-HSD isoform under conditions in which they enhance contractile responses in aortic rings will be done.

[3] = tested on: rat aortic rings; assay: Contractile response of rat aortic rings to phenylephrine; format: cell-based; details: for contractile response to phenylephrine of rings incubated with corticosterone and antisense / effect on the ability of 11-dehydro-corticosterone to amplify the contractile response to phenylephrine: 24 h; for contractile response to phenylephrine of rings incubated with corticosterone and antisense: corticosterone 10 nmol/L + antisense 3 μmol/L, compared with nonsense oligomers; for effect on the ability of 11-dehydro-corticosterone to amplify the contractile response to phenylephrine: 11-dehydro-corticosterone 100 nmol/L, antisense 3 μmol/L vs nonsense; for amplification of the contractile response to phenylephrine by the steroid: rings incubated 24 h with steroid (corticosterone 10 nmol/L; 11-dehydro-corticosterone 100 nmol/L)
Description: Male Sprague-Dawley (150-200 g) rats were anesthetized with pentobarbital (50 mg/kg IP), and a median sternotomy was performed followed by the rapid removal of the thoracic aorta. The adventitia was removed, but the endothelium was left intact. The aorta was cut into 2-3 mm rings and individual rings were placed into a single well of a twenty four well culture plate and incubated at 37° C. under 95% 02-5% CO2. Each well contained 1 mL of DMEM/F12 containing 1% fetal bovine serum, streptomycin (100 μg/ml), penicillin (100 units/ml) and amphotericin (0.25 μg/ml). Aortic rings were incubated for 24 hours prior to contractility measurements with the following combinations of steroids, and antisense/nonsense oligonucleotides (3 μmol/L):
Antisense phosphorothioate oligonucleotides, targeted to block either 11β-HSD2 or 11β-HSD1 gene expression, were obtained from Research Genetics, Huntsville Ala. Antisense oligomers complementary to 20 bp sequences spanning the ribosome binding/translation start site were used. Oligomer sequences were: 5′-CATAACTGCCGTCCAACAGC-3′ (SEQ ID NO. 1) for 11β-HSD1 Antisense and 5′-AGGCCAGCGCTCCATGACTT-3′ (SEQ ID NO 2) for 11β-HSD2 antisense. In control experiments the corresponding sense sequence was used as the nonsense oligomer. Antisense and nonsense oligomers were added directly to each well at 20 μg/10:1 sterile H2O per well for a final concentration of 3 μmol/L.
For contraction measurements, aortic rings were suspended by tungsten wires with 1 g of tension and placed in a vessel bath containing serum free DMEM/F12 media at 37° C. aerated with 95% O2-5% CO2, at pH 7.4. Vessels were equilibrated for 20 minutes and then tested with phenylephrine (1 nmol/L-10 μmol/L). Although phenylephrine is structurally not a catecholamine, it is considered to be a functional catecholamine as it activates both a and P adrenoceptors. Due to its favorable stability characteristics, it is widely used as a catecholamine substitute in experiments of this nature. The intensity of contraction was assessed by use of a Narishige micromanipulator and model FT03 force transducer (Grass Instrument Co. West Warwick, R.I.). Measurements were recorded on computer using the Labview 4.1 Virtual Instrument System (National Instruments, Austin, Tex.).

[4] = biological target: T1, 11β-HSD1-reductase activity (Rattus norvegicus, UniProt P16232); assay: Metabolism of 3H-11-dehydrocorticosterone back to corticosterone by aortic rings; format: cell-based; details: 24 hours, compared with nonsense oligomers
T1 construct: from tissue; host or cells: rat aortic rings (intact tissue, 24 h incubation)
Description: as §1
(ii) ^3H-11β-dehydro-corticosterone (10 nmol/L)±11β-HSD1 antisense (3 μmol/L); this experiment was performed in duplicate (n=10 aortic rings per well). Control groups were incubated with the appropriate nonsense oligomer. ^3H-corticosterone in the incubation medium after 24 hrs was then measured. In this experiment, aortic rings were also analyzed for ^3H-corticosterone content. Rings from duplicate incubations (total n=20) were blotted dry, pooled and homogenized in 50% methanol using a Polytron. The homogenates were then centrifuged, extracted as below using Sep-Paks and injected onto a HPLC system for analysis.
Incubation media was collected, ran through a Sep-Pak and eluted with 3 mls of methanol, the eluate was then dried under nitrogen and reconstituted in 500:1 methanol. The aortic rings were dried and weighed. […] Steroids were observed by monitoring radioactivity on-line with a Packard Radiomatic Flo-One/Beta Series A-500 counter connected to a Dell Optiflex 425 S/L computer. […]

[5] = biological target: T2, 11β-HSD1 Reductase (Rattus norvegicus, UniProt P16232); assay: Table 1: inhibition of 11β-HSD1 reductase; format: biochemical; details: Table 1, inhibition in words
[6] = biological target: T3, 11β-HSD1 Dehydrogenase (Rattus norvegicus, UniProt P16232); assay: Table 1: inhibition of 11β-HSD1 dehydrogenase; format: biochemical; details: Table 1, inhibition in words
[7] = biological target: T4, 11β-HSD2 Dehydrogenase (Ovis aries, UniProt P50168); assay: Table 1: inhibition of 11β-HSD2 dehydrogenase; format: biochemical; details: Table 1, inhibition in words
T4 sequence (P50168 1-427): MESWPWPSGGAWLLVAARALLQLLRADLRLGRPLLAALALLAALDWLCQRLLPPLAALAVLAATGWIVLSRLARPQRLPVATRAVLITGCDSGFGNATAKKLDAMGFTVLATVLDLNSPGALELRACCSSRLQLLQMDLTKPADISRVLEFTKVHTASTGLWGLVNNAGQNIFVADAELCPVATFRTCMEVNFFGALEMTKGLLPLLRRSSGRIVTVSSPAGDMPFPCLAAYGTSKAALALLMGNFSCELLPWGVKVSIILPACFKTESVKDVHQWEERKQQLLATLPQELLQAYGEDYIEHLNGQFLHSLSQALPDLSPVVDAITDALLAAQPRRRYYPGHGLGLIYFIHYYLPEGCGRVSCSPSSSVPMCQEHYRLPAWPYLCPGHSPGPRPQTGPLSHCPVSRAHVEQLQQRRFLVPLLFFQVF

[8] = biological target: T2, 11β-HSD1 Reductase; assay: 11β-HSD1 reductase assay in rat Leydig cell homogenates; details: for inhibitors of 11β-HSD1 reductase (summary in words): summary of the screening;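 for all read-outs here: rat Leydig cell homogenate incubated 20 min at 37 °C, pH 7.4, with tritiated 11-dehydro-corticosterone and 3 mM NADPH, product measured by HPLC, inhibition from triplicate dose–response curves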
[9] = biological target: T5, 11β-HSD2 (Ovis aries, UniProt P50168); assay: 11β-HSD2 enzyme activity in sheep kidney microsomes; format: biochemical; details: for inhibitors of 11β-HSD2 (summary in words): summary of the screening
T5 construct: incubating sheep kidney microsomal fraction (6.5 μg protein) with 50 nM corticosterone; from tissue; host or cells: sheep kidney microsomal fraction
T5 sequence (P50168 1-427): T4 sequence (P50168 1-427)
Description: The enzymatic reaction was termninated by addition of methanol and synthesis of 11-dehydro-corticosterone was quantitated by HPLC as described above.

[10] = biological target: T3, 11β-HSD1 Dehydrogenase; assay: 11β-HSD1 dehydrogenase assay in rat Leydig cell homogenates; format: biochemical; design: Freshly prepared rat Leydig cell homogenates were chosen since they provide a rich and reliable source of both 11β-HSD1 dehydrogenase and reductase; from tissue; host or cells: rat testicular Leydig cells, homogenate; details: for Leydig Cell 11β-HSDl Dehydrogenase [S] = 600 nM: progesterone and androgen derivatives;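 for all read-outs here: tritiated corticosterone conversion by 11β-HSD1 dehydrogenase in Leydig homogenates with 3 mM NADP at pH 8.4, 37 °C for 10 min, products resolved by HPLC, inhibition relative to uninhibited enzyme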
Description: Each enzyme reaction (described below) was stopped by adding 750 μL MeOH. After centrifugation, an aliquot of supernatant was analyzed by HPLC using a DuPont Zorbax C8 column.
11β-HSD1 dehydrogenase was assayed by incubating homogenates (13,000 cells equivalent) with 600 nM [^3H]-B (0.5 μCi) in the presence of 3 mM NADP, 50 mM Tris-HCl; pH 8.4 at 37° C. for 10 minutes in a total volume of 250 μL. 11β-HSD1 reductase was assayed by incubating homogenates (52,000 cells equivalent) with 600 nM [^3H]-11-dehydro-corticosterone in presence of 3 mM NADPH, 50 mM Tris-HCl; pH 7.4 at 37° C. for 20 minutes in a total volume of 250 μL.
Each concentration was tested in triplicate and the dose response curve, showing percentage inhibition versus log concentration of steroid was plotted. The data fitted a log-linear straight line.

[11] = biological target: 11β-HSD1 (Homo sapiens, UniProt P28845); details: Monder et al., 1993; Pearson Murphy et al., 1981; cited from earlier work
[12] = biological target: T6, 11β-HSD2 (Homo sapiens, UniProt P80365); details: Monder et al., 1993; Pearson Murphy et al., 1981; cited from earlier work
T6 sequence (P80365 1-405): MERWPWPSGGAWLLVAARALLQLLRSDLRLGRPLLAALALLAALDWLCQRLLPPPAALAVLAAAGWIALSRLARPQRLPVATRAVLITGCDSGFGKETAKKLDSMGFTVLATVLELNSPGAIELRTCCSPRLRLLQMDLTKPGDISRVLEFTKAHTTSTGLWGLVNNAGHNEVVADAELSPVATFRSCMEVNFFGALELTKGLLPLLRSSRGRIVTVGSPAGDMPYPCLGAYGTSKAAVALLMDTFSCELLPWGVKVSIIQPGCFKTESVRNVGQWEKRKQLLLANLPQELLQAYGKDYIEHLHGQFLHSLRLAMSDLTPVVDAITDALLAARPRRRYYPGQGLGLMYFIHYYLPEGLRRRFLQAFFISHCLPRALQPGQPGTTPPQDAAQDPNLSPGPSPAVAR

[13] = listed as 11β-HSD1 antisense oligomers
[14] = rat Leydig cell homogenates, 600 nM corticosterone

T2 sequence (P16232 whole entry): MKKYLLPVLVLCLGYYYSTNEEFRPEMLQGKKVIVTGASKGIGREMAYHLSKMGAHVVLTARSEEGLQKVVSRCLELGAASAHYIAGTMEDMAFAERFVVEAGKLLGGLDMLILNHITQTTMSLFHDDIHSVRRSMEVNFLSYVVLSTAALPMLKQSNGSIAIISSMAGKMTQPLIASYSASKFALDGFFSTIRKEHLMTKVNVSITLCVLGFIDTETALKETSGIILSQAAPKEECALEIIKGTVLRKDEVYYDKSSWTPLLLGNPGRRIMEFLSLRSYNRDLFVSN
T3 sequence (P16232 whole entry): as above
T1 sequence (P16232 whole entry): as above
Chain of 11β-HSD1 (P28845 whole entry, species assumed): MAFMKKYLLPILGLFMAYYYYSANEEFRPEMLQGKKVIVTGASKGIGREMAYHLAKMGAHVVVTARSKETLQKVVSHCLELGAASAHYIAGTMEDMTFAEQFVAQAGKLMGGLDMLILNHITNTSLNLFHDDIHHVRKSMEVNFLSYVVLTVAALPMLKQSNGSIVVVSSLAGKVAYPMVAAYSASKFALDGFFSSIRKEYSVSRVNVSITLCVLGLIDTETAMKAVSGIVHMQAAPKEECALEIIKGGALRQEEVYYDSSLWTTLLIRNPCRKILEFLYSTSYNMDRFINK

Row | Molecule | reduction in the conversion of corticosterone to 11-dehydrocorticosterone [1] | expression of the respective 11β-HSD enzyme isoform [2] | contractile response to phenylephrine of rings incubated with corticosterone and antisense [3] | production of 3H-corticosterone from 3H-11-dehydrocorticosterone [4] | effect on the ability of 11-dehydro-corticosterone to amplify the contractile response to phenylephrine [3] | IC50 [8] | IC50 [9] | IC50 [10] | Leydig Cell 11β-HSDl Dehydrogenase [S] = 600 nM [10, 14] | amplification of the contractile response to phenylephrine by the steroid [3] | also measured
1 | 5′-AGGCCAGCGCTCCATGACTT-3′ (antisense AGGCCAGCGCTCCATGACTT; all phosphorothioate, sugars by position and methylation of C not given here) [11β-HSD2 antisense] | 24% | down-regulate the expression | statistically significant increase; also recorded: significantly (P<0.05) increased |  |  |  |  |  |  |  | 
2 | 5′-CATAACTGCCGTCCAACAGC-3′ (antisense CATAACTGCCGTCCAACAGC; all phosphorothioate, sugars by position and methylation of C not given here) [11β-HSD1 antisense] | 21% | down-regulate the expression | significantly increased | significantly reduce; also recorded: markedly reduced; also recorded: marked decrease | significantly attenuated |  |  |  |  |  | effect on the ability of 11-dehydro-corticosterone to amplify the contractile response to phenylephrine ([3]; listed as 11β-HSD1 antisense oligomer): attenuates; effect on the ability of 11-dehydro-corticosterone to amplify the contractile response to phenylephrine [3, 13]: attenuated; contractile response to phenylephrine of rings incubated with corticosterone and antisense [3, 13]: enhanced the ability of corticosterone to amplify the contractile response
3 | CC(=O)[C@H]1CC[C@@H]2[C@@H]3CCC4=CC(=O)CC[C@]4(C)[C@@H]3C(=O)C[C@]12C (stereo in doubt) [11 -Keto-Progesterone, 4-Pregnen-3,11,20-trione] |  |  |  | decreased the metabolism | diminished | 9.5 µM | 0.4 µM | > 100 µM | inactive |  | 11β-HSD1 Reductase [5]: Selective Inhibitor; 11β-HSD1 Dehydrogenase [6]: No Inhibition; 11β-HSD2 Dehydrogenase [7]: Potent Inhibitor; inhibitors of 11β-HSD1 reductase (summary in words) ([8]; listed as 11-Keto-Progesterone): potent inhibitors; inhibitors of 11β-HSD1 reductase (summary in words) ([8]; listed as 11-keto-progesterone): high potency; inhibitors of 11β-HSD2 (summary in words) ([9]; listed as 11-keto-progesterone): potent inhibitors; also recorded: high potency
4 | C[C@]12CC(=O)[C@H]3[C@@H](CCC4=CC(=O)CC[C@@]43C)[C@@H]1CC[C@@H]2C(=O)CO [11-dehydro-corticosterone] |  |  |  |  |  |  |  |  |  | amplified the contractile response | IC50 ([9]; 11β-HSD2, sheep kidney microsomes, 50 nM corticosterone, NAD+, aldosterone, cortisol, corticosterone series, read-out: Dehydrogenase [S] = 50 nM): 0.47 µM; inhibitors of 11β-HSD2 (summary in words) [9]: potent inhibitors; also recorded: high potency; IC50 ([10]; rat Leydig cell homogenates, 600 nM corticosterone, NADP, corticosteroid series, read-out: Leydig Cell 11β-HSD1 Dehydrogenase [S]= 600 nM): > 100 µM
5 | C[C@]12CCC(=O)C=C1CC[C@@H]1[C@@H]2[C@@H](O)C[C@]2(C)C(=O)CC[C@@H]12 [11β-OH-Androstenedione, 4-Androsten-11β-ol-3,17-dione] |  |  |  |  |  | > 100 µM | 7.8 µM | > 100 µM | inactive |  | inhibition of 11β-HSD1 isoform [11]: poor inhibitor; inhibition of 11β-HSD2 isoform [12]: poor inhibitor; Sheep kidney 11β-HSD2 [S] = 50 nM ([9]; sheep kidney microsomes, corticosterone substrate, progesterone and androgen derivatives): weak inhibitor
6 | C[C@]12C[C@H](O)[C@H]3[C@@H](CCC4=CC(=O)CC[C@@]43C)[C@@H]1CC[C@@H]2C(=O)CO [corticosterone, reference compound] |  |  |  |  |  |  |  |  |  | amplified contractile responses | 
